Results reported in patent US20050032863A1, “Method of treating or preventing central nervous system disorders with compounds having selectivity for the alpha 3 subunit of the benzodiazepine receptor” (priority 2003, published 2005).

Key:
[1] = tested on: dt^sz mutant Syrian golden hamsters; assay: Genetic hamster model of paroxysmal dystonia, triple stimulation; type: in vivo, Syrian golden hamster
Protocol: Drug testing was performed at the maximal sensitivity of the hamsters for induction of dystonic attacks, i.e. between 30 and 40 days of age. Dystonic attacks were induced by a triple stimulation technique: The hamsters were taken from their home cage and placed on a balance (to determine body weight), were then injected i.p. with saline (control) or drug, and immediately placed individually in a new and empty plastic cage. Dystonic attacks started within a few minutes after placing the hamsters in the new plastic cage.
The final stage persisted for two to five hours, but rapid recovery occurred thereafter.
A first group of animals (n=8) was tested for ocurrence and severity of dystonic attacks at the age of 32-33 days after administration of vehicle (i.p.) as well as after performing the triple stimulation procedure as described above. Two or three days later, the same animals received E131-00139 i.p. and were again observed for 3 hours and again 2-3 days later the animals were re-tested after vehicle administration to serve as post dose control. […] The first stack represents the first hour of observation statring with drug administration, the second stack of bars represents the second hour of observation and the third stack the third hour.
The first (open) bar represents the control response of the animals recorded 2-3 days prior to the drug test, the black bar represents the results obtained after drug administration and the third (gray) bar represents the post drug control tested 2-3 days after the drug administration. The pre-and post test was used to exclude that a reduction of severity of stages was only due to a reduction in sensitivity for the induction of dystonic attacks is age dependent.

[2] = tested on: extracellular serotonin in the striatum of rats; assay: Microdialysis in the striatum of rats, reversal by flumazenil (Example 6); type: in vivo, rat
Protocol: The day before the experiment, male rats were anaesthetised with chloral hydrate (3.6%, 1 ml/100 g i.p.) and placed in a stereotaxic frame to implant a microdialysis guide cannula (CMA/12, Carnegie Medicine, Sweden). Scalp was incised in the median anterior-posterior direction between lambda and bregma and a small hole was drilled into the skull. The stereotaxic coordinates were AP=+1.0 mm, L=−3.0 mm from bregma and 1.5 mm from the skull surface for the striatum according to the atlas of Paxinos and Watson, (1986) (1). Dental cement (Sinfony(2)) was used to fix the guide cannula and anchor screws to the cranium. During the surgery rectal temperature was maintained at 37° C. using a heating blanket.
The day before the experiment the microdialysis probe (CMA/12, membrane length 4 mm, Carnegie Medicin, Sweden) was inserted into the striatum through the guide cannula. […] Microvials were stored in a fraction collector (CMA/170) at a temperature of 8° C. until analysed. […]
Dialysates were directly analysed by reverse-phase high-performance liquid chromatography with electrochemical detection (HPLC-EC). […]
Therefore data of each animal were expressed as percentages. Data from dialysates before administering the substances were averaged, and the mean set as 100%; all individual values were calculated accordingly.

## O=C1N=C(N2CCCCC2)CN1c1ccc(Cl)cc1 [ELB139, 1-(4-chlorophenyl)-4-piperidinoimidazolin-2-one]
[1]; 5 mg/kg i.p.
  antidystonic activity: still a significant antidystonic activity was present
[1]; 10 mg/kg i.p.
  tolerability and sedation: well tolerated and no sedation was observed
[1]; 10 mg/kg i.p., total observation period 3 h
  severity of the dystonic attack: significantly reduced
[2]; 30 mg/kg i.p.
  extracellular serotonin in the striatum compared to mean basal level: marked increase
[2]; ELB139 30 mg/kg i.p., flumazenil 10 mg/kg i.p. 40 minutes later
  increase of extracellular serotonin after flumazenil: not only reversed but serotonin level even decreases below the mean basal level
